Measured values taken from the supplement of paper PMC13207355.
Where a name gives a salt, the structure may show the parent alone.

Assays:
Settings in all cases: exposure time: 72 h
E13 [1] = patient-derived glioblastoma stem cells of classical subtype; assay: phenotypic distance (Euclidean, principal components) from DMSO controls (arbitrary units); higher = stronger morphological change
E21 [2] = patient-derived glioblastoma stem cells of mesenchymal subtype; assay: as above
E28 [3] = patient-derived glioblastoma stem cells of classical subtype; assay: as above
E31 [4] = patient-derived glioblastoma stem cells of proneural subtype; assay: as above
E34 [5] = patient-derived glioblastoma stem cells of proneural subtype; assay: as above
FT3469 [6] = normal neural stem cell line; assay: as above
E57 [7] = patient-derived glioblastoma stem cells of mesenchymal subtype; assay: as above
E13 [8] = assay: surviving fraction (nuclei count normalised to DMSO); higher = more cells surviving (less toxic)
E21 [9] = assay: as above
E28 [10] = assay: as above
E31 [11] = assay: as above
E34 [12] = assay: as above
FT3469 [13] = assay: as above
E57 [14] = assay: as above
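For phenotypic distance (Euclidean, principal components) from DMSO controls in this document: cell Painting imaging in 384-well plates, CellProfiler features reduced to at least 20 principal components, Euclidean distance versus same-plate DMSO vehicle wells (0.1% v/v), median over six images per well.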
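For surviving fraction (nuclei count normalised to DMSO) in this document: nuclei counted by high-content imaging of Hoechst-stained cells in laminin-coated 384-well plates, relative to 0.1% DMSO vehicle wells, with staurosporine as cell-death control.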

CC(C)NCC(O)COc1cccc2ccccc12 (stereo unspecified) [Propranolol hydrochloride]
Settings | phenotypic distance | surviving fraction
E13 [1], 4.1 nM | 0.572 | –
E13 [1], 12.3 nM | 1.82 | –
E13 [1], 37 nM | 0.661 | –
E13 [1], 111.1 nM | 0.582 | –
E13 [1], 333.3 nM | 0.522 | –
E13 [1], 1000 nM | 0.547 | –
E13 [1], 3000 nM | 0.516 | –
E13 [8], 4.1 nM | – | 0.971
E13 [8], 12.3 nM | – | 1.08
E13 [8], 37 nM | – | 0.923
E13 [8], 111.1 nM | – | 1.07
E13 [8], 333.3 nM | – | 1.1
E13 [8], 1000 nM | – | 1.03
E13 [8], 3000 nM | – | 0.991
E21 [2], 4.1 nM | 0.729 | –
E21 [2], 12.3 nM | 0.784 | –
E21 [2], 37 nM | 0.999 | –
E21 [2], 111.1 nM | 0.707 | –
E21 [2], 333.3 nM | 0.864 | –
E21 [2], 1000 nM | 0.673 | –
E21 [2], 3000 nM | 0.713 | –
E21 [9], 4.1 nM | – | 0.912
E21 [9], 12.3 nM | – | 0.926
E21 [9], 37 nM | – | 0.978
E21 [9], 111.1 nM | – | 1.01
E21 [9], 333.3 nM | – | 1.01
E21 [9], 1000 nM | – | 1.1
E21 [9], 3000 nM | – | 1
E28 [3], 4.1 nM | 0.642 | –
E28 [3], 12.3 nM | 0.425 | –
E28 [3], 37 nM | 0.914 | –
E28 [3], 111.1 nM | 0.692 | –
E28 [3], 333.3 nM | 0.687 | –
E28 [3], 1000 nM | 0.509 | –
E28 [3], 3000 nM | 0.633 | –
E28 [10], 4.1 nM | – | 0.98
E28 [10], 12.3 nM | – | 1.05
E28 [10], 37 nM | – | 0.949
E28 [10], 111.1 nM | – | 1.12
E28 [10], 333.3 nM | – | 1.03
E28 [10], 1000 nM | – | 1.13
E28 [10], 3000 nM | – | 1.03
E31 [4], 4.1 nM | 0.541 | –
E31 [4], 12.3 nM | 0.694 | –
E31 [4], 37 nM | 0.736 | –
E31 [4], 111.1 nM | 0.802 | –
E31 [4], 333.3 nM | 0.203 | –
E31 [4], 1000 nM | 0.509 | –
E31 [4], 3000 nM | 0.646 | –
E31 [11], 4.1 nM | – | 0.954
E31 [11], 12.3 nM | – | 0.993
E31 [11], 37 nM | – | 1.1
E31 [11], 111.1 nM | – | 1.08
E31 [11], 333.3 nM | – | 0.917
E31 [11], 1000 nM | – | 0.96
E31 [11], 3000 nM | – | 1.05
E34 [5], 4.1 nM | 0.622 | –
E34 [5], 12.3 nM | 0.866 | –
E34 [5], 37 nM | 0.551 | –
E34 [5], 111.1 nM | 0.616 | –
E34 [5], 333.3 nM | 0.597 | –
E34 [5], 1000 nM | 0.71 | –
E34 [5], 3000 nM | 0.686 | –
E34 [12], 4.1 nM | – | 0.945
E34 [12], 12.3 nM | – | 0.847
E34 [12], 37 nM | – | 0.941
E34 [12], 111.1 nM | – | 1.06
E34 [12], 333.3 nM | – | 0.876
E34 [12], 1000 nM | – | 1.1
E34 [12], 3000 nM | – | 0.949
E57 [7], 4.1 nM | 0.6 | –
E57 [7], 12.3 nM | 1.04 | –
E57 [7], 37 nM | 0.554 | –
E57 [7], 111.1 nM | 0.801 | –
E57 [7], 333.3 nM | 0.597 | –
E57 [7], 1000 nM | 0.686 | –
E57 [7], 3000 nM | 0.742 | –
E57 [14], 4.1 nM | – | 1.05
E57 [14], 12.3 nM | – | 0.959
E57 [14], 37 nM | – | 1.11
E57 [14], 111.1 nM | – | 1.14
E57 [14], 333.3 nM | – | 1.1
E57 [14], 1000 nM | – | 1.09
E57 [14], 3000 nM | – | 1.06
FT3469 [6], 4.1 nM | 0.45 | –
FT3469 [6], 12.3 nM | 0.575 | –
FT3469 [6], 37 nM | 0.676 | –
FT3469 [6], 111.1 nM | 0.814 | –
FT3469 [6], 333.3 nM | 0.71 | –
FT3469 [6], 1000 nM | 0.957 | –
FT3469 [6], 3000 nM | 0.566 | –
FT3469 [13], 4.1 nM | – | 0.985
FT3469 [13], 12.3 nM | – | 1.11
FT3469 [13], 37 nM | – | 1.03
FT3469 [13], 111.1 nM | – | 0.965
FT3469 [13], 333.3 nM | – | 1.01
FT3469 [13], 1000 nM | – | 1.24
FT3469 [13], 3000 nM | – | 1.13

O=C(Oc1cccc2cccnc12)c1ccccc1 [Benzoxiquine]
Settings | phenotypic distance | surviving fraction
E13 [1], 4.1 nM | 1.08 | –
E13 [1], 12.3 nM | 1.14 | –
E13 [1], 37 nM | 0.78 | –
E13 [1], 111.1 nM | 0.506 | –
E13 [1], 333.3 nM | 0.775 | –
E13 [1], 1000 nM | 0.864 | –
E13 [1], 3000 nM | 19.1 | –
E13 [8], 4.1 nM | – | 0.876
E13 [8], 12.3 nM | – | 0.962
E13 [8], 37 nM | – | 1.05
E13 [8], 111.1 nM | – | 0.997
E13 [8], 333.3 nM | – | 1.09
E13 [8], 1000 nM | – | 0.85
E13 [8], 3000 nM | – | 0.000925
E21 [2], 4.1 nM | 1.17 | –
E21 [2], 12.3 nM | 0.851 | –
E21 [2], 37 nM | 1.34 | –
E21 [2], 111.1 nM | 0.833 | –
E21 [2], 333.3 nM | 1.24 | –
E21 [2], 1000 nM | 0.732 | –
E21 [2], 3000 nM | 23.9 | –
E21 [9], 4.1 nM | – | 0.962
E21 [9], 12.3 nM | – | 1.11
E21 [9], 37 nM | – | 1.13
E21 [9], 111.1 nM | – | 1.1
E21 [9], 333.3 nM | – | 0.981
E21 [9], 1000 nM | – | 1.04
E21 [9], 3000 nM | – | 0
E28 [3], 4.1 nM | 1.39 | –
E28 [3], 12.3 nM | 0.791 | –
E28 [3], 37 nM | 1.24 | –
E28 [3], 111.1 nM | 0.938 | –
E28 [3], 333.3 nM | 0.845 | –
E28 [3], 1000 nM | 1.59 | –
E28 [3], 3000 nM | 17.6 | –
E28 [10], 4.1 nM | – | 0.997
E28 [10], 12.3 nM | – | 1.14
E28 [10], 37 nM | – | 1.07
E28 [10], 111.1 nM | – | 1.1
E28 [10], 333.3 nM | – | 1.07
E28 [10], 1000 nM | – | 1.27
E28 [10], 3000 nM | – | 0.00427
E31 [4], 4.1 nM | 1.12 | –
E31 [4], 12.3 nM | 1.22 | –
E31 [4], 37 nM | 0.854 | –
E31 [4], 111.1 nM | 1.7 | –
E31 [4], 333.3 nM | 1.32 | –
E31 [4], 1000 nM | 1.22 | –
E31 [4], 3000 nM | 15.5 | –
E31 [11], 4.1 nM | – | 0.993
E31 [11], 12.3 nM | – | 0.838
E31 [11], 37 nM | – | 0.975
E31 [11], 111.1 nM | – | 1.19
E31 [11], 333.3 nM | – | 1.04
E31 [11], 1000 nM | – | 1.04
E31 [11], 3000 nM | – | 0
E34 [5], 4.1 nM | 0.673 | –
E34 [5], 12.3 nM | 0.614 | –
E34 [5], 37 nM | 0.56 | –
E34 [5], 111.1 nM | 0.455 | –
E34 [5], 333.3 nM | 0.815 | –
E34 [5], 1000 nM | 1.42 | –
E34 [5], 3000 nM | 19.8 | –
E34 [12], 4.1 nM | – | 0.906
E34 [12], 12.3 nM | – | 0.899
E34 [12], 37 nM | – | 0.981
E34 [12], 111.1 nM | – | 1.1
E34 [12], 333.3 nM | – | 1.07
E34 [12], 1000 nM | – | 0.844
E34 [12], 3000 nM | – | 0.00175
E57 [7], 4.1 nM | 0.568 | –
E57 [7], 12.3 nM | 0.458 | –
E57 [7], 37 nM | 0.358 | –
E57 [7], 111.1 nM | 0.673 | –
E57 [7], 333.3 nM | 0.716 | –
E57 [7], 1000 nM | 0.72 | –
E57 [7], 3000 nM | 13.7 | –
E57 [14], 4.1 nM | – | 0.965
E57 [14], 12.3 nM | – | 0.992
E57 [14], 37 nM | – | 0.997
E57 [14], 111.1 nM | – | 1.01
E57 [14], 333.3 nM | – | 0.999
E57 [14], 1000 nM | – | 1.02
E57 [14], 3000 nM | – | 0.00305
FT3469 [6], 4.1 nM | 0.579 | –
FT3469 [6], 12.3 nM | 0.893 | –
FT3469 [6], 37 nM | 0.62 | –
FT3469 [6], 111.1 nM | 0.641 | –
FT3469 [6], 333.3 nM | 1.07 | –
FT3469 [6], 1000 nM | 0.688 | –
FT3469 [6], 3000 nM | 14.3 | –
FT3469 [13], 4.1 nM | – | 1.05
FT3469 [13], 12.3 nM | – | 0.924
FT3469 [13], 37 nM | – | 1.06
FT3469 [13], 111.1 nM | – | 1.03
FT3469 [13], 333.3 nM | – | 1.21
FT3469 [13], 1000 nM | – | 1
FT3469 [13], 3000 nM | – | 0.00288
